# In US10947243B2, “Heteroaryl SYK inhibitors” (Boehringer Ingelheim International GmbH, priority 2014, dated 2021):
# Molecular target: Recombinant human Aurora B (amino acids 1-344) (Homo sapiens (Human), UniProt Q96GD4)
# Test: Aurora B Kinase Test (ADP Glo luminescence)
# Type: biochemical
# Conditions: comparison compounds, Example numbers of WO 2013/014060; read-out: IC50 in μM (AURB-Inhibition)
# Description: The activity of the Aurora B kinase protein was determined using the ADP Glo® Luminescence Kinase test (Promega; V9103X).
# Serial Dilution is done in 1:10 steps in 100% DMSO.
# Then 20 μl Kinase detection mix (Detection Buffer #V913B Promega; Kinase Detection Substrate #V914B Promega) were added and incubated for 40 minutes at room temperature.
# The output file of the reader is a csv file that contains the well number and measured RLU. For data evaluation and calculation, the measurement of the negative control was set as 0% ctrl and the measurement of the positive control was set as 100% ctrl. Based on this values the % value for the measurement of each substance concentration was calculated using an Assay Explorer software (Accelrys). Normally, the % ctrl values calculated are between 0% and 100% values but may also occur outside these limits in individual cases based on variability or compound characteristics. The IC50 values were calculated from the % ctrl values using Assay Explorer software. Calculation: [y=(a−d)/(1+(x/c)^b)+d], a=low value, d=high value; x=conc M; c=IC50 M; b=hill; y=% ctrl.
# Chain of Recombinant human Aurora B (amino acids 1-344) (Q96GD4 whole entry, the tested form may be a part): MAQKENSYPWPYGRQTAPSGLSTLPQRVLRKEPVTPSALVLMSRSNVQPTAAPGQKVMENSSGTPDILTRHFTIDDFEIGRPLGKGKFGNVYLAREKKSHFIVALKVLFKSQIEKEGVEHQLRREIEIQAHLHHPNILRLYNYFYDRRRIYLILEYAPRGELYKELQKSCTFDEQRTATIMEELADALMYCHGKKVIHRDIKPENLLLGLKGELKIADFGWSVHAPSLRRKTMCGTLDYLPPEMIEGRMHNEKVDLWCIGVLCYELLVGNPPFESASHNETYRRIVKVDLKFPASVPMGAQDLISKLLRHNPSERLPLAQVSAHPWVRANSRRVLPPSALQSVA
row,IC50,Compound
1,0.643 µM,"COc1cc(-c2cc3nn(C)cc3c(O[C@H](C)[C@H]3CNC(=O)C3)n2)ccc1O [Example 8, (4R)-4-[(1R)-1-[6-(4-Hydroxy-3-methoxy-phenyl)-2-methyl-pyrazolo[4,3-c]pyridin-4-yl]oxyethyl]pyrrolidin-2-one]"

# Same assay, conditions: read-out: AURB-inhibition IC50-value
row,IC50,Compound
1,> 50 µM,"C[C@@H](Oc1cc(-c2ccn(C)n2)cc2nn(C)cc12)[C@H]1CNC(=O)C1 [Example 14, (4R)-4-[(1R)-1-[2-methyl-6-(1-methylpyrazol-3-yl)indazol-4-yl]oxyethyl]-pyrrolidin-2-one]"
2,> 50 µM,"C[C@@H](Oc1nc(-c2ccc3cc(C(=O)N(C)C)n(C)c3c2)cc2nn(C)cc12)[C@H]1CNC(=O)C1 [Example 56, N,N,1-trimethyl-6-[2-methyl-4-[(1R)-1-[(3R)-5-oxopyrrol-idin-3-yl]ethoxy]pyrazolo[4,3-c]pyridin-6-yl]indole-2-carboxamide]"

# Molecular target: FLT3 (Homo sapiens (Human), UniProt P36888)
# Test: FLT3 Kinase Test (Z'-LYTE)
# Type: biochemical
# Conditions: comparison compounds, Example numbers of WO 2013/014060; read-out: IC50 in μM (FLT3-Inhibition)
# Description: The activity of FLT3 is measured using the Z′-LYTE™ assay technology from Invitrogen (#PV3191)
# The reaction is started by addition of 2.5 μl of the 4×ATP solution.
# Positive controls are reaction mixtures containing no test compound; negative controls (blanks) are reaction mixtures containing no kinase. As a further control, the phosphopeptide solution is added to wells without kinase (=100% phosphorylation control).
# The reaction is performed for 1 h at room temperature before 5 μl of the development solution is added. After a further incubation for 1 h at room temperature 5 μl of the stop reagent is added.
# The output text file is evaluated in an “MS-Excel-VB-Makro” and “GraphPadPrism” (Version 5) (GraphPad Software Inc.) is used to calculate the results. Data for the inhibition of FLT3 are reported in M. data for the inhibition of the protease are reported in % CTL.
# Chain of FLT3 (P36888 564-958): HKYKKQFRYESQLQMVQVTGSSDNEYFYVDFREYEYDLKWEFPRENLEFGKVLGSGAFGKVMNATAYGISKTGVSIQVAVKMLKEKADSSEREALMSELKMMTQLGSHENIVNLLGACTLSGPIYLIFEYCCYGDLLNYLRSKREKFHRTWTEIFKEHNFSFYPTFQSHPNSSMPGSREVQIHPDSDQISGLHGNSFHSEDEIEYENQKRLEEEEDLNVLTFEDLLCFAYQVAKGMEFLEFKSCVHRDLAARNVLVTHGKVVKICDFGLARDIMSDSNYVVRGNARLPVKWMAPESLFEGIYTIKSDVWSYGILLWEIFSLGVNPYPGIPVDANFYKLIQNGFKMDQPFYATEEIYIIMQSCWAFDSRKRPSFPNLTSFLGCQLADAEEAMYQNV
row,IC50,Compound
1,0.369 µM,"COc1cc(-c2cc3nn(C)cc3c(O[C@H](C)[C@H]3CNC(=O)C3)n2)ccc1O [Example 8, (4R)-4-[(1R)-1-[6-(4-Hydroxy-3-methoxy-phenyl)-2-methyl-pyrazolo[4,3-c]pyridin-4-yl]oxyethyl]pyrrolidin-2-one]"

# Same assay, conditions: read-out: FLT3-inhibition IC50-value
row,IC50,Compound
1,25.6 µM,"(4R)-4-[(1R)-1-[6-[1-(Difluoromethyl)imidazol-4-yl]-2-methyl-pyrazolo[4,3-c]pyridin-4-yl]oxyethyl]pyrrolidin-2-one [Example 83]"

# System: not listed separately
# Test: Human Liver Microsomal Stability Test
# Type: in vitro ADME
# Conditions: human liver microsomes; comparison compounds, Example numbers of WO 2011/092128
# Description: The metabolic degradation for a specific SYK-inhibitor is performed at 37° C. with pooled human liver microsomes (human liver microsomes are commercially available as “BD UltraPool™” by Corning Life Sciences, Fogostraat 12, 1060 LJ Amsterdam, The Netherlands). The final incubation volume of 100 μl per time point contains TRIS buffer pH 7.6 at RT (0.1 M), magnesium chloride (5 mM), microsomal protein (1 mg/ml) and the test compound at a final concentration of 1 μM.
# Following a short preincubation period at 37° C., the reaction is initiated by addition of beta-nicotinamide adenine dinucleotide phosphate in its reduced form (NADPH, 1 mM) and terminated by transfering an aliquot into solvent after different time points. Additionally, the NADPH-independent degradation is monitored in incubations without NADPH, terminated at the last time point.
# The quenched (terminated) incubations are then pelleted by centrifugation (10000 g, 5 min).
# An aliquot of the supernatant is assayed by LC-MS/MS for the remaining amount of parent compound. The half-life (t½ INVITRO) is determined by the slope of the semilogarithmic plot of the concentration-time profile.
# The intrinsic clearance (CL_[…]) is calculated by considering the amount of protein in the incubation: CL_[…] [μl/min/mg protein]=(Ln 2/(t½INVITRO [min]*protein content [mg/ml]))*1000
# The protein content [mg/ml] was determined with the “Bicinchoninic Acid Kit” of Sigma Aldrich (commercially available).
# The upscaled intrinsic Clearance (CL_UP_INT) is calcuated by considering the liver weight [g liver/kg body weight] and the microsomal recovery [mg protein/g liver]: CL_UP_INT [ml/min/kg]=0.001*CL_[…]*liver weight*microsomal recovery • with microsomal recovery=45 mg protein/g liver • with liver weight=25.7 g liver/kg body weight
# The percent hepatic blood flow (% Qh) is finally calculated by considering the human liver blood flow Q [ml/min/kg]: % Qh [%]=((Q*CL_UP_INT)/(Q+CL_UP_INT)/Q)*100 • with liver blood flow (Q)=20.7 ml/min/kg.
row,microsomal stability Cl [% Qh],Compound
1,33 % Qh,COc1cc(-c2cc3ncccc3c(O[C@H](C)[C@H]3CNC(=O)C3)n2)ccc1OC(F)(F)F [compound 4]
2,77 % Qh,"COc1cc(-c2cc3ncccc3c(O[C@H](C)[C@H]3CNC(=O)C3)n2)cc(OC)c1Cl [Example 8 of WO 2011/092128, reference compound]"
3,77 % Qh,"COc1cc(-c2cc3nn(C)cc3c(O[C@H](C)[C@H]3CNC(=O)C3)n2)ccc1O [Example 8, (4R)-4-[(1R)-1-[6-(4-Hydroxy-3-methoxy-phenyl)-2-methyl-pyrazolo[4,3-c]pyridin-4-yl]oxyethyl]pyrrolidin-2-one]"

# Same assay, conditions: human liver microsomes; comparison compounds, Example numbers of WO 2013/014060
row,microsomal stability Cl [% Qh],Compound
1,49 % Qh,Cc1nc2ccc(-c3cc(O[C@H](C)[C@H]4CNC(=O)C4)c4cccnc4c3)cc2s1 [compound 85]
2,54 % Qh,COc1cc(-c2cc(O[C@H](C)[C@H]3CNC(=O)C3)c3cccnc3c2)ccc1C(F)(F)F [compound 102]
3,41 % Qh,Cc1nc2cc(-c3cc(O[C@H](C)[C@H]4CNC(=O)C4)c4cccnc4c3)ccc2[nH]1 [compound 109]
4,81 % Qh,"COc1cc(-c2cc(O[C@H](C)[C@H]3CNC(=O)C3)c3cccnc3c2)cc(OC)c1OC [Example 2 of WO 2013/014060, reference compound]"
5,64 % Qh,Cc1nc2cc(-c3cc(O[C@H](C)[C@H]4CNC(=O)C4)c4cccnc4c3)ccc2n1C [compound 105]
6,38 % Qh,Cc1nc(C)c2cc(-c3cc(O[C@H](C)[C@H]4CNC(=O)C4)c4cccnc4c3)ccc2n1 [compound 107]
7,58 % Qh,"COc1cc(-c2cc3nn(C)cc3c(O[C@H](C)[C@H]3CNC(=O)C3)n2)ccc1O [Example 8, (4R)-4-[(1R)-1-[6-(4-Hydroxy-3-methoxy-phenyl)-2-methyl-pyrazolo[4,3-c]pyridin-4-yl]oxyethyl]pyrrolidin-2-one]"

# Same assay, conditions: human liver microsomes; compounds of the invention (own Example numbers)
row,microsomal stability Cl [% Qh],Compound
1,<23 % Qh,"C[C@@H](Oc1cc(-c2ccc3c(c2)c(N)nn3C)cc2nn(C)cc12)[C@H]1CNC(=O)C1 [Example 36, (4R)-4-[(1R)-1-[6-(3-amino-1-methyl-indazol-5-yl)-2-methyl-indazol-4-yl]oxyethyl]pyrrolidin-2-one]"
2,<23 % Qh,"COc1cc(-c2cc3nn(C)cc3c(O[C@H](C)[C@H]3CNC(=O)C3)n2)cc(OC)c1OC [Example 52, (4R)-4-[(1R)-1-[2-methyl-6-(3,4,5-trimethoxyphenyl)-pyrazolo[4,3-c]pyridin-4-yl]oxyethyl]pyrrolidin-2-one]"
3,<23 % Qh,"C[C@@H](Oc1cc(-c2cnn(C(C)(C)C)c2)cc2nn(C)cc12)[C@H]1CNC(=O)C1 [Example 18, (4R)-4-[(1R)-1-[6-(1-tert-butylpyrazol-4-yl)-2-methyl-indazol-4-yl]oxyethyl]pyrrolidin-2-one]"
4,<23 % Qh,"C[C@@H](Oc1nc(-c2ccc3cnn(C)c3c2)cc2nn(C)cc12)[C@H]1CNC(=O)C1 [Example 72, (4R)-4-[(1R)-1-[2-methyl-6-(1-methylindazol-6-yl)pyrazolo[4,3-c]pyridin-4-yl]oxyethyl]pyrrolidin-2-one]"
5,<23 % Qh,"C[C@@H](Oc1nc(-c2ccc3c(cnn3C)c2)cc2nn(C)cc12)[C@H]1CNC(=O)C1 [Example 62, (4R)-4-[(1R)-1-[2-methyl-6-(1-methylindazol-5-yl)pyrazolo[4,3-c]pyridin-4-yl]oxyethyl]pyrrolidin-2-one]"
6,<23 % Qh,"C[C@@H](Oc1cc(-c2ccc3c(cnn3C)c2)cc2nn(C)cc12)[C@H]1CNC(=O)C1 [Example 28, (4R)-4-[(1R)-1-[2-methyl-6-(1-methylindazol-5-yl)indazol-4-yl]oxyethyl]pyrrolidin-2-one]"
7,<23 % Qh,"COc1cc(-c2cc3nn(C)cc3c(O[C@H](C)[C@H]3CNC(=O)C3)n2)ccc1O [Example 8, (4R)-4-[(1R)-1-[6-(4-Hydroxy-3-methoxy-phenyl)-2-methyl-pyrazolo[4,3-c]pyridin-4-yl]oxyethyl]pyrrolidin-2-one]"

# Same assay, conditions: human liver microsomes; percent hepatic blood flow
row,microsomal stability Cl [% Qh],Compound
1,<23 % Qh,"C[C@@H](Oc1cc(-c2ccc(N3CCN(C)CC3)cc2)cc2nn(C)cc12)[C@H]1CNC(=O)C1 [Example 26, (4R)-4-[(1R)-1-[2-methyl-6-[4-(4-methylpiperazin-1-yl)phenyl]indazol-4-yl]oxyethyl]pyrrolidin-2-one]"
2,<23 % Qh,C[C@@H](Oc1cc(-c2ccc3c(c2)CNCC3)cc2ncccc12)[C@H]1CNC(=O)C1 [101 of WO 2013/014060]
3,<23 % Qh,"COc1ccc(-c2cc3nn(C)cc3c(O[C@H](C)[C@H]3CNC(=O)C3)n2)cn1 [Example 59, (4R)-4-[(1R)-1-[6-(6-methoxy-3-pyridyl)-2-methyl-pyrazolo-[4,3-c]pyridin-4-yl]oxyethyl]-pyrrolidin-2-one]"
4,<23 % Qh,C[C@@H](Oc1cc(-c2ccc(C(=O)N3CCN(C)CC3)cc2)cc2ncccc12)[C@H]1CNC(=O)C1 [76 of WO 2013/014060]
5,<23 % Qh,C[C@@H](Oc1cc(-c2ccc(CN3CCOCC3)cc2)cc2ncccc12)[C@H]1CNC(=O)C1 [43 of WO 2013/014060]
6,<23 % Qh,"CC(C)Oc1ccc(-c2cc(O[C@H](C)[C@H]3CNC(=O)C3)c3cn(C)nc3c2)cn1 [Example 27, (4R)-4-[(1R)-1-[6-(6-isopropoxy-3-pyridyl)-2-methyl-indazol-4-yl]oxyethyl]pyrrolidin-2-one]"
7,34 % Qh,"C[C@@H](Oc1nc(-c2ccc(N3CCN(C)CC3)cc2)cc2nn(C)cc12)[C@H]1CNC(=O)C1 [Example 67, (4R)-4-[(1R)-1-[2-methyl-6-[4-(4-methylpiperazin-1-yl)phenyl]pyrazolo[4,3-c]pyridin-4-yl]oxyethyl]-pyrrolidin-2-one]"
8,<23 % Qh,"C[C@@H](Oc1nc(-c2ccc(C(F)F)nc2)cc2nn(C)cc12)[C@H]1CNC(=O)C1 [Example 51, (4R)-4-[(1R)-1-[6-[6-(difluoromethyl)-3-pyridyl]-2-methyl-pyrazolo[4,3-c]pyridin-4-yl]oxyethyl]pyrrolidin-2-one]"
9,24 % Qh,C[C@@H](Oc1cc(-c2ccccn2)cc2ncccc12)[C@H]1CNC(=O)C1 [6 of WO 2013/014060]
10,53 % Qh,C[C@@H](Oc1nc(-c2ccc(N3CCOCC3)nc2)cc2ncccc12)[C@H]1CNC(=O)C1 [45 of WO 2011/092128]
11,25 % Qh,"C[C@@H](Oc1cc(-c2ccc(N3CCOCC3)cc2)cc2nn(C)cc12)[C@H]1CNC(=O)C1 [Example 22, (4R)-4-[(1R)-1-[2-Methyl-6-(4-morpholinophenyl)indazol-4-yl]oxyethyl]-pyrrolidin-2-one]"
